Results from ChEMBL document CHEMBL1141079, “Cytostatic 6-arylpurine nucleosides. 6. SAR in anti-HCV and cytostatic activity of extended series of 6-hetarylpurine ribonucleosides” (J Med Chem, 2005).

What was measured:
Homo sapiens = species on record: Homo sapiens; experiment: Cytotoxic concentration required to reduce the cellular rRNA level in hepatitis C virus replicon cells
L1210 [1] = experiment: In vitro inhibitory concentration against mouse leukemia L1210 cell line; format: functional, cell-based
Hepatitis C virus = experiment: Effective concentration required to reduce Hepatitis C virus; format: functional, Hepacivirus hominis
HL-60 [2] = experiment: In vitro inhibitory concentration against human promyelocytic leukemia HL60 cell line; format: functional, cell-based
CCRF-CEM = experiment: In vitro inhibitory concentration against human T lymphoblastoid CCRF-CEM cell line; format: functional, cell-based
HeLa [3] = experiment: In vitro inhibitory concentration against human cervix carcinoma HeLaS3 cell line; format: functional, cell-based
HL-60 [4] = experiment: In vitro inhibitory concentration against human promyelocytic leukemia HL60 cell line; n.a. is not active; format: functional, cell-based
L1210 [5] = experiment: In vitro inhibitory concentration against mouse leukemia L1210 cell line; n.a. is not active; format: functional, cell-based
HeLa [6] = experiment: In vitro inhibitory concentration against human cervix carcinoma HeLaS3 cell line; n.a. is not active; format: functional, cell-based
[7] = Homo sapiens, CCRF-CEM, read-out: IC50

Row | IC50 (L1210 [1]) [µM] | EC90 (Hepatitis C virus) [µM] | IC50 (HL-60 [2]) [µM] | IC50 (CCRF-CEM; [7]) [µM] | IC50 (HeLa [3]) [µM] | IC50 (HL-60 [4]) | IC50 (CCRF-CEM; ccrf-cem) | IC50 (L1210 [5]) | IC50 (HeLa [6]) | Structure (SMILES) | CC50 (Homo sapiens) [µM]
1 | 0.37 | 0.7 | 4.9 | 0.6 | 25 | – | – | – | – | OC[C@H]1O[C@@H](n2cnc3c(-c4cccs4)ncnc32)[C@H](O)[C@@H]1O | 1.1
2 | – | > 100 | – | – | – | Not Active | Not Active | Not Active | Not Active | Cn1nccc1-c1ncnc2c1ncn2C1O[C@H](CO)[C@@H](O)[C@H]1O (stereo partly drawn) | > 100
3 | – | 1.14 | – | – | – | – | – | – | – | C[C@@]1(O)[C@H](O)[C@@H](CO)O[C@H]1n1cnc2c(N)ncnc21 | 15
4 | – | > 100 | 15.7 | 2 | – | – | – | Not Active | Not Active | Cn1cccc1-c1ncnc2c1ncn2C1O[C@H](CO)[C@@H](O)[C@H]1O (stereo partly drawn) | > 100
5 | 16 | 6 | 6.3 | 2.73 | – | – | – | – | Not Active | OC[C@H]1OC(n2cnc3c(-c4nccs4)ncnc32)[C@H](O)[C@@H]1O (stereo partly drawn) | 6.7
6 | – | > 100 | – | 15 | – | Not Active | – | Not Active | Not Active | OC[C@H]1OC(n2cnc3c(-c4cc5ccccc5o4)ncnc32)[C@H](O)[C@@H]1O (stereo partly drawn) | > 100
7 | – | 40.7 | 5.6 | 2.9 | 11.4 | – | – | Not Active | – | Cc1csc(-c2ncnc3c2ncn3C2O[C@H](CO)[C@@H](O)[C@H]2O)c1 (stereo partly drawn) | 7
8 | – | 1.4 | 3.3 | 1.65 | – | – | – | Not Active | Not Active | OC[C@H]1OC(n2cnc3c(-c4ccoc4)ncnc32)[C@H](O)[C@@H]1O (stereo partly drawn) | 6.9
9 | – | > 100 | 4.5 | 2.5 | > 20 | – | – | Not Active | – | Cc1ccsc1-c1ncnc2c1ncn2C1O[C@H](CO)[C@@H](O)[C@H]1O (stereo partly drawn) | > 100
10 | – | > 100 | 7.6 | – | – | – | – | – | – | COc1ccc(-c2ncnc3c2ncn3C2O[C@H](CO)[C@@H](O)[C@H]2O)cc1 (stereo partly drawn) | < 10
11 | – | 16.7 | 6.3 | – | – | – | – | – | – | OC[C@H]1O[C@@H](n2cnc3c(-c4ccccc4)ncnc32)[C@H](O)[C@@H]1O | 8.3
12 | – | > 100 | – | 6 | – | Not Active | – | Not Active | Not Active | Cc1csc(-c2ncnc3c2ncn3C2O[C@H](CO)[C@@H](O)[C@H]2O)n1 (stereo partly drawn) | > 100
13 | 19.8 | 0.8 | 1.17 | 0.75 | – | – | – | – | Not Active | OC[C@H]1OC(n2cnc3c(-c4cc[nH]n4)ncnc32)[C@H](O)[C@@H]1O (stereo partly drawn) | 0.6
14 | – | 49.5 | 6.3 | 0.7 | 2.7 | – | – | – | – | OC[C@H]1OC(n2cnc3c(-c4ccc(F)cc4)ncnc32)[C@H](O)[C@@H]1O (stereo partly drawn) | 9.2
15 | 2 | 0.4 | 2.7 | 0.6 | 25 | – | – | – | – | OC[C@H]1OC(n2cnc3c(-c4ccco4)ncnc32)[C@H](O)[C@@H]1O (stereo partly drawn) | 1.6
16 | 5 | 2.6 | 7.6 | 1.25 | 32.5 | – | – | – | – | OC[C@H]1OC(n2cnc3c(-c4ccc(O)cc4)ncnc32)[C@H](O)[C@@H]1O (stereo partly drawn) | 5.2
17 | 17.5 | 0.14 | 3.2 | 1.03 | – | – | – | – | Not Active | OC[C@H]1OC(n2cnc3c(-c4cc[nH]c4)ncnc32)[C@H](O)[C@@H]1O (stereo partly drawn) | < 0.1
18 | – | > 100 | – | – | – | Not Active | – | Not Active | – | OC[C@H]1OC(n2cnc3c(-c4ccc(Cl)cc4)ncnc32)[C@H](O)[C@@H]1O (stereo partly drawn) | > 100
19 | 4.3 | 6 | 5.6 | 0.9 | 9.7 | – | – | – | – | OC[C@H]1OC(n2cnc3c(-c4ccccn4)ncnc32)[C@H](O)[C@@H]1O (stereo partly drawn) | 2.7
20 | – | > 100 | – | – | – | Not Active | Not Active | Not Active | Not Active | Cc1cc(-c2ncnc3c2ncn3C2O[C@H](CO)[C@@H](O)[C@H]2O)on1 (stereo partly drawn) | > 100

Row | Structure (SMILES) | IC50 (L1210 [1]) [µM] | EC90 (Hepatitis C virus) [µM] | IC50 (HL-60 [2]) [µM] | IC50 (CCRF-CEM; [7]) [µM] | IC50 (HeLa [3]) [µM] | IC50 (HL-60 [4]) | IC50 (CCRF-CEM; ccrf-cem) | IC50 (L1210 [5]) | IC50 (HeLa [6]) | CC50 (Homo sapiens) [µM]
21 | OC[C@H]1OC(n2cnc3c(-c4ccsc4)ncnc32)[C@H](O)[C@@H]1O (stereo partly drawn) | 10.8 | 0.82 | 3.8 | 1.64 | – | – | – | – | Not Active | < 0.1
